Article PMC12022751, “In vitro and in silico analysis of synthesized N-benzyl indole-derived hydrazones as potential anti-triple negative breast cancer agents” (RSC Advances, 2025)

Legend:
Assay type in all cases: cell-based, human
[1] = system: MDA-MB-231 breast cancer cell line; test: MTT cytotoxicity assay on MDA-MB-231; conditions: 48 h incubation; for Viability (%) Breast cancer cell line (MDA-MB-231): test concentration for viability not stated (6.5-50 μM tested); for IC50: triplicate
Method: (§1) All synthesized compounds (5a–5v) were tested using MTT assay at various concentrations (6.5 μM, 12.5 μM, 25 μM, and 50 μM) on the human breast cancer cell line MDA-MB-231. The cytotoxicity of the synthesized analogues was also assessed using human normal breast epithelial cell lines MCF-10A. Table 1 denotes IC50 values, percent inhibition, and cell viability for compounds 5a–v on MDA-MB-231. The dose–response analysis and calculations of IC50 values were performed using IBM SPSS statistics 26. The MTT assay on MDA-MB-231 confirmed the anticancer potential of all compounds. […] We then followed the same protocol as the cancer cells for the non-tumorigenic MCF-10A cells but with different concentrations (6.5 μM, 12.5 μM, 25 μM, and 50 μM). This was done to determine whether the toxic effects of the chemicals were selective for cancer cells compared to non-cancerous cells.
(§2) The in vitro cytotoxicity of the synthetic derivatives was evaluated using an MTT assay against a breast cancer cell line (MDA-MB-231).[33] The normal human breast cell line (MCF-10A) was maintained as a control in this study.[34,35] The cells were grown in DMEM with 10% FBS and 1% antibiotics (100 U mL^−1 penicillin). They were plated in a 96-well plate at a density of 1.0 × 10^4 cells per well and incubated for 24 hours at 37 °C in a 5% CO2 atmosphere. After discarding the medium, both cell lines were treated with various concentrations (6.5 μM, 12.5 μM, 25 μM, and 50 μM) of synthetic triazole derivatives.[36] After 48 h of incubation, [37] 20 μL of MTT solution (5 mg mL^−1) was added to each well and incubated for an additional 4 hours. After incubation, the medium was removed, and the formazan precipitate was dissolved in DMSO. The absorbance of the mixture was then measured at 570 nm using a microplate reader. All experiments were performed in triplicate, and the cytotoxicity was expressed as a percentage of cell viability compared to untreated control cells as per an earlier reported protocol by Sakhi et al.:[36]1 [drawing 1]

[2] = system: MCF-10A normal breast epithelial cell line; test: MTT cytotoxicity assay on normal MCF-10A cells; conditions: Homo sapiens, MCF-10A, 48 h incubation
Method: as §1, §2

[3] = MTT cytotoxicity assay on normal MCF-10A cells; conditions: human, MCF-10A normal breast epithelial cells, 48 h incubation, test concentration for viability not stated (6.5-50 μM tested), read-out: Viability (%) Normal cell line (MCF-10A)
Method: as §1, §2

COc1ccc(C(=O)NN=Cc2cn(Cc3ccccc3)c3ccccc23)cc1 [Compound 5a, (E)-N′-[(1-benzyl-1H-indol-3-ylmethylene]-4-methoxybenzohydrazide]
Viability (%) Breast cancer cell line (MDA-MB-231) [1]: 32.45%
IC50 ([1]; Homo sapiens, MDA-MB-231, 48 h): 25.6 ± 0.4 µM
IC50 [2]: > 50 µM
viability at 48 h [3]: 82.7%

O=C(NN=Cc1cn(Cc2ccccc2)c2ccccc12)c1ccccc1 [Compound 5b, (E)-N′-[(1-benzyl-1H-indo1-3-yl)methylene]benzohydrazide]
Viability (%) Breast cancer cell line (MDA-MB-231) [1]: 18.56%
IC50 ([1]; Homo sapiens, MDA-MB-231, 48 h): 17.2 ± 0.4 µM
IC50 [2]: > 50 µM
viability at 48 h [3]: 77.1%

Cc1ccc(C(=O)NN=Cc2cn(Cc3ccccc3)c3ccccc23)cc1F [Compound 5c, (E)-N′-((l-benzyl-1H-indo1-3-yl)methylenel-3-fluoro-4-methylbenzohydrazide]
Viability (%) Breast cancer cell line (MDA-MB-231) [1]: 37.40%
IC50 ([1]; Homo sapiens, MDA-MB-231, 48 h): 27.1 ± 0.4 µM
IC50 [2]: > 50 µM
viability at 48 h [3]: 85.7%

O=C(Cc1ccc(C(F)(F)F)cc1)NN=Cc1cn(Cc2ccccc2)c2ccccc12 [Compound 5d, (E)-N′-[(1-benzyl-1H-indo1-3-yl)methylene]-2-(4(trifluoromethyl)phenyl)acetohydrazide]
Viability (%) Breast cancer cell line (MDA-MB-231) [1]: 27.94%
IC50 ([1]; Homo sapiens, MDA-MB-231, 48 h): 22.6 ± 0.8 µM
IC50 [2]: > 50 µM
viability at 48 h [3]: 80.2%

O=C(NN=Cc1cn(Cc2ccccc2)c2ccccc12)c1cccnc1 [Compound 5e, (E)-N′-[(1-benzyl-1H-indo1-3-yl)methylene]nicotinohydrazide]
Viability (%) Breast cancer cell line (MDA-MB-231) [1]: 31.47%
IC50 ([1]; Homo sapiens, MDA-MB-231, 48 h): 28.2 ± 0.5 µM
IC50 [2]: > 50 µM
viability at 48 h [3]: 85.7%

O=C(NN=Cc1cn(Cc2ccccc2)c2ccccc12)c1ccc(Br)cc1 [Compound 5f, (E)-N′-[(1-benzyl-1H-indo1-3-yl)methylene]-4-bromobenzohydrazide]
Viability (%) Breast cancer cell line (MDA-MB-231) [1]: 25.05%
IC50 ([1]; Homo sapiens, MDA-MB-231, 48 h): 21.8 ± 0.2 µM
IC50 [2]: > 50 µM
viability at 48 h [3]: 82.4%

O=C(NN=Cc1cn(Cc2ccccc2)c2ccccc12)c1cc2ccccc2cc1O [Compound 5g, (E)-N′-[(1-benzyl-1H-indo1-3-yl)methylene]-3-hydroxy-2-naphthohydrazide]
Viability (%) Breast cancer cell line (MDA-MB-231) [1]: 29.76%
IC50 ([1]; Homo sapiens, MDA-MB-231, 48 h): 24.4 ± 0.6 µM
IC50 [2]: > 50 µM
viability at 48 h [3]: 81.8%

O=C(NN=Cc1cn(Cc2ccccc2)c2ccccc12)c1ccc(C(F)(F)F)cc1 [Compound 5h, (E)-N′-[(1-benzyl-1H-indo1-3-yl)methylene]-4-(trifluoromethyl)benzohydrazide]
Viability (%) Breast cancer cell line (MDA-MB-231) [1]: 33.07%
IC50 ([1]; Homo sapiens, MDA-MB-231, 48 h): 30.8 ± 0.4 µM
IC50 [2]: > 50 µM
viability at 48 h [3]: 78.1%

O=C(NN=Cc1cn(Cc2ccccc2)c2ccccc12)c1ccco1 [Compound 5i, (E)-N′-[(1-benzyl-1H-indo1-3-yl)methylene]furan-2-carbohydrazide]
Viability (%) Breast cancer cell line (MDA-MB-231) [1]: 23.53%
IC50 [1]: 19.2 ± 0.4 µM
IC50 ([1]; Homo sapiens, MDA-MB-231, 48 h): 17.2 ± 0.4 µM
IC50 [2]: > 50 µM
viability at 48 h [3]: 84.6%

O=C(NN=Cc1cn(Cc2ccccc2)c2ccccc12)c1cccc(Cl)c1 [Compound 5j, (E)-N′-[(1-benzyl-1H-indo1-3-yl)methylene]-3-chlorobenzohydrazide]
Viability (%) Breast cancer cell line (MDA-MB-231) [1]: 21.87%
IC50 ([1]; Homo sapiens, MDA-MB-231, 48 h): 22.6 ± 0.1 µM
IC50 [2]: > 50 µM
viability at 48 h [3]: 80.8%

O=C(NN=Cc1cn(Cc2ccccc2)c2ccccc12)c1ccncc1 [Compound 5k, (E)-N′-[(1-benzyl-1H-indo1-3-yl)methylene]isonicotinohydrazide]
Viability (%) Breast cancer cell line (MDA-MB-231) [1]: 23.44%
IC50 ([1]; Homo sapiens, MDA-MB-231, 48 h): 21.4 ± 0.2 µM
IC50 [2]: > 50 µM
viability at 48 h [3]: 80.1%

O=C(NN=Cc1cn(Cc2ccccc2)c2ccccc12)c1ccccc1Br [Compound 5m, (E)-N′-[(1-benzyl-1H-indo1-3-yl)methylene]-2-bromobenzohydrazide]
Viability (%) Breast cancer cell line (MDA-MB-231) [1]: 29.14%
IC50 ([1]; Homo sapiens, MDA-MB-231, 48 h): 26.4 ± 0.2 µM
IC50 [2]: > 50 µM
viability at 48 h [3]: 87.2%

O=C(Cc1ccccc1)NN=Cc1cn(Cc2ccccc2)c2ccccc12 [Compound 5n, (E)-N′-(l-benzyl-1H-indo1-3-yl)methylenel-2-phenylacetohydrazide]
Viability (%) Breast cancer cell line (MDA-MB-231) [1]: 44.16%
IC50 ([1]; Homo sapiens, MDA-MB-231, 48 h): 43.4 ± 0.2 µM
IC50 [2]: > 50 µM
viability at 48 h [3]: 79.8%

O=C(NN=Cc1cn(Cc2ccccc2)c2ccccc12)c1ccccc1Cl [Compound 5o, (E)-N′-((l-benzyl-1H-indo1-3-yl)methylenel-2-chlorobenzohydrazide]
Viability (%) Breast cancer cell line (MDA-MB-231) [1]: 20.37%
IC50 ([1]; Homo sapiens, MDA-MB-231, 48 h): 19.6 ± 0.5 µM
IC50 [2]: > 50 µM
viability at 48 h [3]: 82.3%

O=C(Cc1ccccc1C(F)(F)F)NN=Cc1cn(Cc2ccccc2)c2ccccc12 [Compound 5p, (E)-N′-[(1-benzyl-1H-indo1-3-yl)methylene]-2-(2-(trifluoromethyl)phenypacetohydrazide]
Viability (%) Breast cancer cell line (MDA-MB-231) [1]: 25.67%
IC50 ([1]; Homo sapiens, MDA-MB-231, 48 h): 24.6 ± 0.1 µM
IC50 [2]: > 50 µM
viability at 48 h [3]: 83.1%

O=C(Cc1ccc(F)cc1F)NN=Cc1cn(Cc2ccccc2)c2ccccc12 [Compound 5q, (E)-N′-[(1-benzyl-1H-indo1-3-yl)methylene]-2-(2,4-difluorophenypacetohydrazide]
Viability (%) Breast cancer cell line (MDA-MB-231) [1]: 41.09%
IC50 ([1]; Homo sapiens, MDA-MB-231, 48 h): 37.6 ± 0.2 µM
IC50 [2]: > 50 µM
viability at 48 h [3]: 79.5%

O=C(Cc1cc(F)cc(F)c1)NN=Cc1cn(Cc2ccccc2)c2ccccc12 [Compound 5r, (E)-N′-[(1-benzyl-1H-indo1-3-yl)methylene]-2-(3,5-difluorophenyl)acetohydrazide]
Viability (%) Breast cancer cell line (MDA-MB-231) [1]: 36.18%
IC50 ([1]; Homo sapiens, MDA-MB-231, 48 h): 31.6 ± 0.1 µM
IC50 [2]: > 50 µM
viability at 48 h [3]: 84.1%

O=C(Cc1cc(F)ccc1F)NN=Cc1cn(Cc2ccccc2)c2ccccc12 [Compound 5s, (E)-N′-[(1-benzyl-1H-indo1-3-yl)methylene]-2-(2,5-difluorophenyl)acetohydrazide]
Viability (%) Breast cancer cell line (MDA-MB-231) [1]: 38.14%
IC50 ([1]; Homo sapiens, MDA-MB-231, 48 h): 29.4 ± 0.8 µM
IC50 [2]: > 50 µM
viability at 48 h [3]: 86.3%

O=C(NN=Cc1cn(Cc2ccccc2)c2ccccc12)c1cccc2ccccc12 [Compound 5u, (E)-N′-[(1-benzyl-1H-indo1-3-yl)methylene]-1-naphthohydrazide]
Viability (%) Breast cancer cell line (MDA-MB-231) [1]: 30.59%
IC50 ([1]; Homo sapiens, MDA-MB-231, 48 h): 26.6 ± 0.1 µM
IC50 [2]: > 50 µM
viability at 48 h [3]: 83.6%

Cc1ccccc1C(=O)NN=Cc1cn(Cc2ccccc2)c2ccccc12 [Compound 5v, (E)-N′-[(1-benzyl-1H-indo1-3-yl)methylene]-2-methylbenzohydrazide]
Viability (%) Breast cancer cell line (MDA-MB-231) [1]: 28.11%
IC50 [1]: 23.1 ± 0.6 µM
IC50 ([1]; Homo sapiens, MDA-MB-231, 48 h): 29.4 ± 0.8 µM
IC50 [2]: > 50 µM
viability at 48 h [3]: 81%
